How the values were obtained:
Format in all cases: biochemical
[1] = target: T1, (MOUSE)NAT2, murine arylamine N-acetyltransferase Type 2 (Mus musculus, UniProt P50295); assay: real-time 1H-NMR and DTNB assay of hydrolysis to CoA and acetate
T1 construct: pure recombinant
T1 sequence (P50295 1-290): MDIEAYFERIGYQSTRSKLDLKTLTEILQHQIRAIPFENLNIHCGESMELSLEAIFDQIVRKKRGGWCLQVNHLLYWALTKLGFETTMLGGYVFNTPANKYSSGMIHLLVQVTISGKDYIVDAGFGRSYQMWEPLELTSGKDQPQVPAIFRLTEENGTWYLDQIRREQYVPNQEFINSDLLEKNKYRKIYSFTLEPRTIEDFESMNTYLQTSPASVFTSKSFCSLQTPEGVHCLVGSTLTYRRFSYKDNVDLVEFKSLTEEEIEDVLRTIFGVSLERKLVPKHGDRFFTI

[2] = target: T2, (HUMAN)NAT1, human arylamine N-acetyltransferase Type 1 (Homo sapiens, UniProt P18440); assay: HPLC time course of hydrolysis to CoA
T2 construct: pure recombinant
T2 sequence (P18440 1-290): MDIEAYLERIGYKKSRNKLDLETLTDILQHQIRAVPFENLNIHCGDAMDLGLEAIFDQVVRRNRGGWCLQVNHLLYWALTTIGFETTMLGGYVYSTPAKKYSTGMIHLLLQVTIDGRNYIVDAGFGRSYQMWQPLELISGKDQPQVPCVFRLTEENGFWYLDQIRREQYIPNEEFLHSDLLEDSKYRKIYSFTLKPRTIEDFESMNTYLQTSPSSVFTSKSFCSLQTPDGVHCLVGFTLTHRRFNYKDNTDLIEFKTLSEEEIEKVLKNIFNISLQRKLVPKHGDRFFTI

[3] = target: T1, (MOUSE)NAT2, murine arylamine N-acetyltransferase Type 2; assay: DTNB colorimetric assay of folate-dependent AcCoA hydrolysis, dose response
Excerpt: DTNB colorimetric assay of folate-dependent AcCoA hydrolysis, dose response on (MOUSE)NAT2, murine arylamine N-acetyltransferase Type 2 | its concentration dependence was characterised (Figure 6C).

[4] = target: T2, (HUMAN)NAT1, human arylamine N-acetyltransferase Type 1; assay: folate concentration dependence of AcCoA hydrolysis (Michaelis-Menten fit); HPLC time course
[5] = target: T1, (MOUSE)NAT2, murine arylamine N-acetyltransferase Type 2; assay: folate concentration dependence of AcCoA hydrolysis (Michaelis-Menten fit); real-time 1H-NMR of turnover
[6] = target: T1, (MOUSE)NAT2, murine arylamine N-acetyltransferase Type 2; assay: DTNB colorimetric hydrolysis assay

## CC(=O)SCCNC(=O)CCNC(=O)[C@H](O)C(C)(C)COP(=O)(O)OP(=O)(O)OC[C@H]1O[C@@H](n2cnc3c(N)ncnc32)[C@H](O)[C@@H]1OP(=O)(O)O [acetyl Coenzyme A]
[1]
  specific rate of hydrolysis to CoA and acetate: 360 µM/s/mg
[2]
  specific rate of hydrolysis to CoA: 583 µM/s/mg

## Cc1cc(C)cc(NC2=C(NS(=O)(=O)c3ccccc3)C(=O)c3ccccc3C2=O)c1 [compound 1, naphthoquinone 1]
[3]
  IC50: 0.14 µM

## Nc1nc2ncc(CNc3ccc(C(=O)N[C@@H](CCC(=O)O)C(=O)O)cc3)nc2c(=O)[nH]1 [folate]
[4]
  Kd: ~75 µM
[5]
  Kd: ~71 µM

## CCC(=O)SCCNC(=O)CCNC(=O)[C@H](O)C(C)(C)COP(=O)(O)OP(=O)(O)OC[C@H]1O[C@@H](n2cnc3c(N)ncnc32)[C@H](O)[C@@H]1OP(=O)(O)O [n-propionyl CoA]
[6]
  specific acetyl-CoA hydrolysis rate: 290 µM/s/mg

— paper PMC4019507, “From Arylamine N-Acetyltransferase to Folate-Dependent Acetyl CoA Hydrolase: Impact of Folic Acid on the Activity of (HUMAN)NAT1 and Its Homologue (MOUSE)NAT2” (PLoS ONE, 2014)
